Results on 21 molecules are retold here after publication PMC8330740, “Discovery of new 3-methylquinoxalines as potential anti-cancer agents and apoptosis inducers targeting VEGFR-2: design, synthesis, and in silico studies” (Journal of Enzyme Inhibition and Medicinal Chemistry, 2021).

Each structure is given as a SMILES string.

Series [1] concerns MCF-7 (human breast cancer cell line). Description: MTT cytotoxicity assay, MCF-7. In kind it is cell-based. The settings on record: for IC50: Homo sapiens, MCF7, MTT assay, mean of at least three different experiments; for Cytotoxic activity against the two cell lines (in words): MCF-7 and HepG2 together. As to the method: (§1) In vitro cytotoxicity was carried out using MTT assay protocol[47]^,[65–67] as described in Supplementary data.
A general note: Tetrazolium assays rely on reduction of a dye to a coloured formazan, in cell work by metabolically active cells.

The test system of series [2] is HepG2 (human liver carcinoma cell line). The series is described as follows: MTT cytotoxicity assay, HepG2. The note with it: mean of at least three different experiments. It counts as cell-based. As to the method: as §1
A further series has as its target Human VEGFR-2 (Homo sapiens, UniProt P35968). Description: In vitro VEGFR-2 kinase assay (Human VEGFR-2 ELISA kit). For orientation: An ELISA detects its analyte on a solid surface through an enzyme-linked reagent.
The next series concerns primary rat hepatocytes. Description: In vitro cytotoxicity against normal cells. The settings on record: Hepatocyte, read-out: IC50 primary rat hepatocytes.

Sequence of Human VEGFR-2 (P35968 20-1356): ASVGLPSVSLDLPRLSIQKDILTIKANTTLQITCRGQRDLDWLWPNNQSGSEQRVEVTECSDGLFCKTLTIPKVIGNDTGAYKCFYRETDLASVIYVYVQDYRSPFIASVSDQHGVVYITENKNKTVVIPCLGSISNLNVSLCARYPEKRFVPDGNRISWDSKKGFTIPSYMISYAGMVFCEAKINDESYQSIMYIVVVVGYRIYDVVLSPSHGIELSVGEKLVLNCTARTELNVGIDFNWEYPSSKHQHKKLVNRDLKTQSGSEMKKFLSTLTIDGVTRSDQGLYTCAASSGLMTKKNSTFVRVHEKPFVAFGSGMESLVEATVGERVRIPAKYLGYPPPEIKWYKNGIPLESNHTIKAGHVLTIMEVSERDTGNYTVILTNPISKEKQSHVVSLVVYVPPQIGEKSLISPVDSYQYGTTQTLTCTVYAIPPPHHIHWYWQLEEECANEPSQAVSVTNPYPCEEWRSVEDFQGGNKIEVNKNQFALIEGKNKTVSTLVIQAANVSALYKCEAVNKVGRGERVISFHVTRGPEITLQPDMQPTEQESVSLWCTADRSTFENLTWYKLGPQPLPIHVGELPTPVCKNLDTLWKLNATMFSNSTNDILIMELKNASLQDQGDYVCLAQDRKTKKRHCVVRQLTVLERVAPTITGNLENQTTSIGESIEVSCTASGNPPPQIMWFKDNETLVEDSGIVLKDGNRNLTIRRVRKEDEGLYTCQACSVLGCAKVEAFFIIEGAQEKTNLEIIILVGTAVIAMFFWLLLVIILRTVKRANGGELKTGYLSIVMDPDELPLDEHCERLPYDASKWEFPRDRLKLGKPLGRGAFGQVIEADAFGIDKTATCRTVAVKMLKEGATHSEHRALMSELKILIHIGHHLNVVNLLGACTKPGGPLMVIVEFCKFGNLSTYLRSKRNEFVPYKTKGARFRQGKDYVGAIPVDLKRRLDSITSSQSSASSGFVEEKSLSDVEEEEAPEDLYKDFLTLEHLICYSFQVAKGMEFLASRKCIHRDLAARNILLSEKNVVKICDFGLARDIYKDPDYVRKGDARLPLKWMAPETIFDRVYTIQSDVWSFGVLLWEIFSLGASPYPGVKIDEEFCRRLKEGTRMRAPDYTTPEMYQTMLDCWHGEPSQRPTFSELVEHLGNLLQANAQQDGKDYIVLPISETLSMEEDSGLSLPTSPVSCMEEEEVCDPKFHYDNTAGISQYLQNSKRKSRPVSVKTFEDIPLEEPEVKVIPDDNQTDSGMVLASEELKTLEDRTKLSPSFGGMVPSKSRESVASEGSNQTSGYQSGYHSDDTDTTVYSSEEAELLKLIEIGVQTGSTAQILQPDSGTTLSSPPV

On to `CC(=O)c1ccc(NC(=O)c2ccc(NC(=O)Cn3c(=O)c(C)nc4ccccc43)cc2)cc1` [Compound 11g, N-(4-Acetylphenyl)-4–(2-(3-methyl-2-oxoquinoxalin-1(2H)-yl)acetamido)benzamide], for which the figures for the IC50 (in series [1]; in series [2]; at Human VEGFR-2) were 6.7 µM, 3.8 µM and 0.0034 µM, respectively.
The matching figures for `CCC(C)NC(=O)c1ccc(NC(=O)Cn2c(=O)c(C)nc3ccccc32)cc1` (stereo not shown) [Compound 11b, N-(sec-Butyl)-4–(2-(3-methyl-2-oxoquinoxalin-1(2H)-yl)acetamido)benzamide]: 21.2 µM, 12.8 µM and 0.0053 µM.
Regarding `COc1cccc(NC(=O)c2ccc(NC(=O)CSc3nc4ccccc4nc3C)cc2)c1` [Compound 12e, N-(3-Methoxyphenyl)-4–(2-((3-methylquinoxalin-2-yl)thio)acetamido) benzamide], the IC50 (as a rule, the concentration that gives 50% inhibition) in series [1] worked out at 5.3 µM; in series [2] it was 4.8 µM; with primary rat hepatocytes it was 16.7 µM; against Human VEGFR-2, 0.0038 µM.
`Cc1nc2ccccc2nc1SCC(=O)Nc1ccc(C(=O)NC2CCCC2)cc1` [Compound 12c, N-Cyclopentyl-4–(2-((3-methylquinoxalin-2-yl)thio)acetamido)benzamide]: the concentration for half-maximal inhibition (IC50) came to 31.3 µM in series [1], 18.7 µM in series [2] and 0.0198 µM against Human VEGFR-2.
For `Cc1nc2ccccc2n(CC(=O)Nc2ccc(C(=O)Nc3ccc(F)cc3)cc2)c1=O` [Compound 11h, N-(4-Fluorophenyl)-4–(2-(3-methyl-2-oxoquinoxalin-1(2H)-yl)acetamido)benzamide], the IC50 came out at 25.8 µM in series [1], 22.7 µM in series [2] and 0.0116 µM against Human VEGFR-2. In addition, in series [1], the “Cytotoxic activity against the two cell lines (in words)” value (shortened to “Cytotoxic activity”) is listed as “weak cytotoxic activity”.
In the case of `COc1ccccc1NC(=O)c1ccc(NC(=O)CSc2nc3ccccc3nc2C)cc1` [Compound 12d, N-(2-Methoxyphenyl)-4–(2-((3-methylquinoxalin-2-yl)thio)acetamido) benzamide], the half-maximal inhibitory concentration (IC50) was determined as 23.5 µM in series [1], 17.6 µM in series [2] and 0.0134 µM against Human VEGFR-2.
With `CCC(C)NC(=O)c1ccc(NC(=O)CSc2nc3ccccc3nc2C)cc1` (stereo not shown) [Compound 12b, N-(sec-Butyl)-4–(2-((3-methylquinoxalin-2-yl)thio)acetamido)benzamide], the IC50 worked out at 35.7 µM in series [1], 21.7 µM in series [2] and 0.0157 µM at Human VEGFR-2. Also, the “Cytotoxic activity” value in series [1] was “weak cytotoxic activity”.
Taken in the same sequence, the figures for `Cc1nc2ccccc2n(CC(=O)Nc2ccc(C(=O)Nc3nccs3)cc2)c1=O` [Compound 11j, 4–(2-(3-Methyl-2-oxoquinoxalin-1(2H)-yl)acetamido)-N-(thiazol-2-yl)benzamide] were 32.8 µM, 27.8 µM, 0.0134 µM and “weak cytotoxic activity”.
Turning to `Cc1nc2ccccc2n(CC(=O)Nc2ccc(C(=O)NC3CCCC3)cc2)c1=O` [Compound 11c, N-Cyclopentyl-4–(2-(3-methyl-2-oxoquinoxalin-1(2H)-yl)acetamido)benzamide], the figures for the IC50 (in series [1]; in series [2]; on Human VEGFR-2) were 28.1 µM, 18.7 µM and 0.0127 µM, respectively.
Taken in the same sequence, the figures for `Cc1cccc(NC(=O)c2ccc(NC(=O)CSc3nc4ccccc4nc3C)cc2)c1` [Compound 12j, 4–(2-((3-Methylquinoxalin-2-yl)thio)acetamido)-N-(m-tolyl)benzamide] were 61.2 µM, 40.7 µM and 0.0378 µM.
For `COc1ccccc1NC(=O)c1ccc(NC(=O)Cn2c(=O)c(C)nc3ccccc32)cc1` [Compound 11d, N-(2-Methoxyphenyl)-4–(2-(3-methyl-2-oxoquinoxalin-1(2H)-yl)acetamido)benzamide], the IC50 is 52.3 µM in series [1], 34.1 µM in series [2] and 0.0374 µM against Human VEGFR-2. Besides, in series [1], the “Cytotoxic activity” value is recorded as “weak cytotoxic activity”.
As for `COc1ccc(NC(=O)c2ccc(NC(=O)Cn3c(=O)c(C)nc4ccccc43)cc2)cc1` [Compound 11f, N-(4-Methoxyphenyl)-4–(2-(3-methyl-2-oxoquinoxalin-1(2H)-yl)acetamido)benzamide], the IC50 in series [1] turned out to be 12.4 µM; in series [2], 9.6 µM; on Human VEGFR-2, 0.0048 µM.
Take `CC(=O)c1ccc(NC(=O)c2ccc(NC(=O)CSc3nc4ccccc4nc3C)cc2)cc1` [Compound 12g, N-(4-Acetylphenyl)-4–(2-((3-methylquinoxalin-2-yl)thio)acetamido)benzamide]: the IC50 was determined as 8.7 µM in series [1], 6.1 µM in series [2] and 0.0054 µM against Human VEGFR-2.
Taken in the same sequence, the figures for `Cc1nc2ccccc2nc1SCC(=O)Nc1ccc(C(=O)Nc2ccccn2)cc1` [Compound 12i, 4–(2-((3-Methylquinoxalin-2-yl)thio)acetamido)-N-(pyridin-2-yl)benzamide] were 58.6 µM, 44.7 µM and 0.0241 µM.
As to `CNC(=O)c1cc(Oc2ccc(NC(=O)Nc3ccc(Cl)c(C(F)(F)F)c3)cc2)ccn1` [Sorafenib, reference compound], the IC50 in series [1] came out at 3.4 µM; in series [2], 2.2 µM; in the series with primary rat hepatocytes, 13.4 µM.
With `CNC(=O)c1ccc(NC(=O)CSc2nc3ccccc3nc2C)cc1` [Compound 12a, N-Methyl-4–(2-((3-methylquinoxalin-2-yl)thio)acetamido)benzamide], the IC50 was found to be 69.2 µM in series [1], 23.7 µM in series [2] and 0.0327 µM at Human VEGFR-2. The “Cytotoxic activity” value in series [1] is “weak cytotoxic activity”.
Turning to `COc1ccc(NC(=O)c2ccc(NC(=O)CSc3nc4ccccc4nc3C)cc2)cc1` [Compound 12f, N-(4-Methoxyphenyl)-4–(2-((3-methylquinoxalin-2-yl)thio)acetamido) benzamide], the IC50 came to 10.8 µM in series [1], 7.5 µM in series [2] and 0.0038 µM on Human VEGFR-2.
The matching figures for `CNC(=O)c1ccc(NC(=O)Cn2c(=O)c(C)nc3ccccc32)cc1` [Compound 11a, N-Methyl-4–(2-(3-methyl-2-oxoquinoxalin-1(2H)-yl)acetamido)benzamide]: 23.9 µM, 16.5 µM and 0.0112 µM.
Taken in the same sequence, the figures for `Cc1ccc(NC(=O)c2ccc(NC(=O)CSc3nc4ccccc4nc3C)cc2)cc1` [Compound 12k, 4–(2-((3-Methylquinoxalin-2-yl)thio)acetamido)-N-(p-tolyl)benzamide] were 9.8 µM, 6.7 µM and 0.0029 µM.
In the case of `Cc1nc2ccccc2n(CC(=O)Nc2ccc(C(=O)Nc3ccccn3)cc2)c1=O` [Compound 11i, 4–(2-(3-Methyl-2-oxoquinoxalin-1(2H)-yl)acetamido)-N-(pyridin-2-yl)benzamide], the IC50 in series [1] turned out to be 69.7 µM; in series [2] it was 51.8 µM; against Human VEGFR-2, 0.0527 µM. The “Cytotoxic activity” value in series [1] is “weak cytotoxic activity”.
Turning to `Cc1nc2ccccc2nc1SCC(=O)Nc1ccc(C(=O)Nc2ccc(F)cc2)cc1` [Compound 12h, N-(4-Fluorophenyl)-4–(2-((3-methylquinoxalin-2-yl)thio)acetamido)benzamide], the IC50 in series [1] was determined as 67.8 µM; in series [2] it was 35.8 µM; at Human VEGFR-2 it was 0.0514 µM.
